# T1: ApNEAAT1 (ACYPI008971) (Acyrthosiphon pisum, UniProt A0A8R1W427)
# T1 construct: cDNA in pcDNA3.1 or pCS2+, cRNA injected into Xenopus laevis oocytes; SLC36-related AAAP transporter; I161 in TM3
# T1 sequence (A0A8R1W427 1-463): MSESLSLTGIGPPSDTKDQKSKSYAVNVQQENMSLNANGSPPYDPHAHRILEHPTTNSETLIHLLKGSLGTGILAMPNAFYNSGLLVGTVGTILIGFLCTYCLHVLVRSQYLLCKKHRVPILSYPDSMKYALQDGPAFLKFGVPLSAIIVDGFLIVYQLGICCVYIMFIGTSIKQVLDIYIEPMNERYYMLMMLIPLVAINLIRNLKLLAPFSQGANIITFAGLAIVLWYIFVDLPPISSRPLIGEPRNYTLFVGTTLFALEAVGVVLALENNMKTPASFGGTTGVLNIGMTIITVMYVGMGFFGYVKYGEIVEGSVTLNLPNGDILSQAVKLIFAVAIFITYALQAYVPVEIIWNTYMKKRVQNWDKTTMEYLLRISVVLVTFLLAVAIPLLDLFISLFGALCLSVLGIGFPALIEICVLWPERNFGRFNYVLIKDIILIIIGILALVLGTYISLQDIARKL
# B1: ApNEAAT1 (ACYPI008971) (Acyrthosiphon pisum) (protein)
# chain: T1 sequence (A0A8R1W427 1-463)
# How the values were obtained:
# PAT2 (rat slc36a2) [1] = target: T2, PAT2 (rat slc36a2) (Rattus norvegicus, UniProt Q8K415); experiment: trans-stimulation of [3H]proline efflux from Xenopus oocytes; type: cell-based; design: wild type in pSPORT, cRNA injected into Xenopus laevis oocytes; conditions: 10 mM extracellular alanine, Na+-free, pH 5.5, 10 min
# ApNEAAT1 (ACYPI008971) = target: T1, ApNEAAT1 (ACYPI008971); experiment: competition with radiolabelled proline uptake in Xenopus oocytes; type: cell-based; conditions: pH 5.5, Na+-free, room temperature, 10 mM competitor
# PAT2 (rat slc36a2) [2] = target: T2, PAT2 (rat slc36a2); conditions: 0.1 to 1 mM proline, Na+-free, pH 5.5, -30 mV; H+ symport
# [3] = substrate: O=C(O)[C@@H]1CCCN1; experiment: cells, lysate or membranes; conditions: pH 5.5, Na+-free, room temperature, 40 min, labelled compound
# [4] = also direct uptake at 10 µM (Figure 4A)
# T2 sequence (Q8K415 whole entry): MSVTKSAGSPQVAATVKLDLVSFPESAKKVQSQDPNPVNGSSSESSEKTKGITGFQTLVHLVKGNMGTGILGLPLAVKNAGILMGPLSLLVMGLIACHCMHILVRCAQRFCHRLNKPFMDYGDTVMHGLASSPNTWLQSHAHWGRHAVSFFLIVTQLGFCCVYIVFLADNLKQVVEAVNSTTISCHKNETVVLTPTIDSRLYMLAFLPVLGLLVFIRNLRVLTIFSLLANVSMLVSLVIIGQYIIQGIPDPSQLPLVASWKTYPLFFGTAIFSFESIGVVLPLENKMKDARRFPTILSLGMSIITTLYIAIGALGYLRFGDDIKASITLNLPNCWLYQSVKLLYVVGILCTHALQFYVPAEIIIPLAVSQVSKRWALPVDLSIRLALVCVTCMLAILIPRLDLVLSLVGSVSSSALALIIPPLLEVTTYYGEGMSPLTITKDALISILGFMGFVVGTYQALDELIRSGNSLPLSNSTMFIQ
molecule,measurement,setting,value
"C[C@H](N)C(=O)O [Ala, alanine]",trans-stimulation of [3H]proline efflux from Xenopus oocytes,PAT2 (rat slc36a2) [1],"In PAT2-expressing oocytes, alanine trans-stimulation of [3H]proline efflux was evident"
same,% control proline uptake at 10 mM,ApNEAAT1 (ACYPI008971); [4],"smaller dipolar L- and D-amino acids (including proline, alanine, serine, cysteine, and glycine)"
"N[C@@H](CS)C(=O)O [Cys, cysteine]",% control proline uptake at 10 mM,ApNEAAT1 (ACYPI008971); also trans-stimulates [3H]proline efflux (Figure 4D),Cysteine is thus demonstrated to be an ApNEAAT1 substrate by its ability to trans-stimulate
O=C(O)[C@H]1CCCN1 [D-proline],% control proline uptake at 10 mM,ApNEAAT1 (ACYPI008971),"small NEAAs (such as glycine and L- and D-proline, serine, alanine, and cysteine)"
"O=C(O)[C@@H]1CCCN1 [Pro, proline]","two-electrode voltage clamp of Xenopus oocytes, proline-induced inward current",PAT2 (rat slc36a2) [2],Proline-associated inward current in PAT2-expressing but not ApNEAAT1-expressing or uninjected (control) oocytes
"N[C@@H](CO)C(=O)O [Ser, serine]",% control proline uptake at 10 mM,ApNEAAT1 (ACYPI008971); [4],"smaller dipolar L- and D-amino acids (including proline, alanine, serine, cysteine, and glycine)"
"C[C@@H](O)[C@H](N)C(=O)O [Thr, threonine]",% control proline uptake at 10 mM,ApNEAAT1 (ACYPI008971); weak,"weaker interactions with amino acids of slightly larger side-chain (e.g., threonine)"
B1,Km,[3],179 ± 33 µM

# — paper PMC6690024, “Trading amino acids at the aphid–Buchnera symbiotic interface” (Proceedings of the National Academy of Sciences of the …, 2019)
